Melting point data for 34 molecules are collected here from a melting point compilation (Tetko et al.; mined from patent text by program, amines drawn as free bases though some values may be those of a salt).

For orientation: melting point means the temperature, or range, at which the solid turns liquid. `CC(C)Oc1c(C(N)=O)oc2ccc(O)cc12` had a melting point of 183 to 185 °C.
The figure for `CC(=O)Nc1c(Cl)cc(Br)c(C)c1Cl` is 173 to 174 °C.
On to `CC(C)Oc1ccc2c(c1)Cc1ccccc1C2=O`, for which the melting point lay within 123 to 124 °C.
The molecule `Cc1ccc(SCc2ccc(OC(F)(F)F)cc2)cc1` returned a melting point of 74 to 76 °C.
The figure for `Cc1cc(-c2ccc(Cl)cc2)nc2c(C(=O)Nc3cccc(S(N)(=O)=O)c3)cnn12` is 308 to 310 °C; for `CC(C)(C)c1nnc(-c2nn(-c3ccc(F)cc3F)c3c2C2CCC3C2)o1` (centres undefined) it is 108 to 110 °C.
The same measure for `CC(=O)Cc1ccc(Oc2ccc(Cl)cc2)cc1`: 50 to 52 °C; for `CCCCCS(=O)(=O)NC(=O)/C=C/c1ccc(OCCOC)cc1Nc1ccc(C(F)(F)F)cc1Cl`: 174 to 175 °C; for `O=C(CCSc1ccc2ccccc2c1)c1ccccc1`: 90 to 91 °C.
The same measure for `C[C@H](CO)[C@H]1CC[C@H]2[C@@H]3C=CC4=CC(=O)C=C[C@]4(C)[C@H]3CC[C@]12C`: 156 to 157 °C; for `Cc1ccc(CC(O)=S)cc1`: 94.5 to 95 °C; for `CCCc1nc2c(N)nc3cc(-c4cccnc4)ccc3c2n1CCCCNC(=O)OC(C)(C)C`: 136 to 138 °C.
Regarding `COc1ccc(S(=O)(=O)N2C(=O)[C@@](c3ccccc3OC)(N3C[C@H](OC(=O)N(C)C)C[C@H]3C(=O)N(C)C)c3cc(Cl)ccc32)c(OC)c1`, the melting point is 138 to 140 °C.
The figure for `CN(c1ccc(Br)cc1)S(=O)(=O)c1cccc(C(=O)Nc2ccc(F)cc2F)c1` is 119 to 120 °C.
The figure for `Cc1cc(C)cc(S(=O)(=O)c2cccc(F)c2C#N)c1` is 167 to 168 °C; for `Cc1cc(-n2ccnc2)c2cccc(OCc3c(Cl)ccc(S(=O)(=O)N4CCC[C@H]4C(=O)NCCCN(C)C)c3Cl)c2n1` it is 80 °C; for `CC(C)(C)OC(=O)c1ccc(Cl)cn1` it is 86.3 to 88.3 °C.
The same measure for `OCCOc1ccc2c(c1)oc1cc(Cl)ccc12`: 118 to 120 °C.
Consider `CCOc1ccc(Oc2ccc(OCc3ccccc3)cc2)c([N+](=O)[O-])c1`, for which the melting point lay in the range of 96 to 96.5 °C.
The same measure for `CC(C)C(NC(=O)C(Cc1ccccc1)NC(=O)OCc1ccccc1)C(=O)Nc1n[nH]c(=S)s1` (centres undefined): 170 to 174 °C; for `CCCN(c1ccccc1)C1CCN(CCOc2c(C)cccc2C)CC1`: 82 °C; for `CCC(=C(c1ccccc1)c1ccc(C=CC(N)=NO)cc1)c1ccccc1`: 182 to 185 °C.
The figure for `CN(C)C(=O)Nc1ccc(Oc2ccc3sncc3c2)c(Cl)c1` is 149 °C; for `COc1cc2c(c(OC)c1)OC(C(F)(F)F)C(C(=O)O)=C2` (centres undefined) it is 215 to 217 °C.
The same measure for `Cc1cc(NC(=O)NN(c2ccccc2)c2cccc(C#N)c2)ccc1N1CCOCC1`: 115 to 116 °C.
`CNC(=O)c1cc2c(Oc3ccc(-n4cncn4)cc3)cncc2s1` had a melting point of 214 to 215 °C.
The figure for `COC(=O)C1=C(C)NC(=O)N(C)C1c1cccc([N+](=O)[O-])c1` (centres undefined) is 217 to 219 °C.
Molecule `CC(=O)N1CCC(CCC(=O)c2ccc(F)cc2)CC1` had a melting point of 95 to 96 °C.
The figure for `CCn1nc(-c2ccc(OC)cc2)cc(C(=O)NC)c1=O` is 122 to 123 °C; for `CCCc1c(OCCCc2ccc(OC)c(OC)c2)ccc(C(=O)O)c1O` it is 104 to 110 °C.
`CCOc1ccc(C[C@@H](NC(=O)[C@H]2CC[C@H](C(C)C)CC2)C(=O)O)cc1` gave a melting point of 149 to 151 °C.
The same measure for `CN(CC(=O)O)C(=O)C(=O)c1cn(Cc2ccccc2)c2ccc(-c3cccc(OC(F)(F)F)c3)cc12`: 178 to 179 °C; for `Cc1ccn2c(C)c(-c3ccc4c(c3)NC(=O)C(C)O4)nc2c1` (centres undefined): 254 to 256 °C; for `CN1CCC(OC2c3ccccc3CCn3c2nc(-c2ccccc2)c3CO)CC1` (centres undefined): 120 °C.
